For this assay, the system named is gray mold fungus (Botrytis cinerea). Briefly: Cucumber leaf disk preventive test against gray mold fungus (Test Examples 1, 2 and Reference Example). In kind it is in vivo. How it is done:
True leaf of cucumber is punched out with cork borer to 13 mm in diameter to prepare a leaf disk. In 24 well microwell plate that is dispensed with 1 ml 0.8% water agar, the leaf disk is placed such that the upper side of the leaf is in an upward direction. Thereto is added 20 micro liter a testing solution prepared by mixing a dimethyl sulfoxide solution of the present compound (racemate) and a dimethyl sulfoxide solution of ferimzone or oxolinic acid to a predetermined concentration to treat the leaf disk.
After confirming that the testing medical solution is dried, conidium of gray mold fungus (Botrytis cinerea) is suspended into potato dextrose broth (DIFCO) in a density of about 10^5 conidium/mL and is then subjected to a spray inoculation. After leaving to stand the leaf disk in a growth chamber set up at 15° C. for four days, an onset area on the leaf is measured and then calculated an onset area rate (hereinafter, referred to as an onset area rate of treated group).
The same operation is carried out with 20 micro liter water instead of 20 micro liter a testing medicine solution to calculate an onset area rate (hereinafter, referred to an onset area rate of non-treated group).
A preventive value is calculated from the above onset area rate of treated group and the onset area rate of non-treated group by the following equation:
Preventive value(%)=100×(A−B)/A
A: an onset area rate of treated group
B: an onset area rate of non-treated group
The same operations as described in Test Example 1 are carried out with fenamidone, acibenzolar-5-methyl, amisulbrom, dazomet, diclomezine, famoxadone, fenoxanil, probenazole, proquinazid, pyroquilon, quinoxyfen, tricyclazole, isoprothiolane or tiadinil instead of ferimzone or oxolinic acid, so as to calculate respective preventive values.
Also for comparison, the same operations as described in Test Example 1 are carried out with the exception that the testing medicine solution is substituted with a predetermined concentration of each dimethyl sulfoxide solution of the present compound (racemate), fenamidone, acibenzolar-5-methyl, amisulbrom, dazomet, diclomezine, famoxadone, fenoxanil, probenazole, proquinazid, pyroquilon, quinoxyfen, tricyclazole, isoprothiolane, or tiadinil, so as to calculate respective preventive values.
For comparison, the same operations as described in Test Example 1 are carried out with the exception that the testing medicine solution is substituted with a predetermined concentration of each dimethyl sulfoxide solution of ferimzone or oxolinic acid, so as to calculate a preventive value.

The mark [1] stands for this setting: heterocyclic compound alone, 0.5 ppm, 15° C., four days.
Setting [2] is: heterocyclic compound alone, 5.0 ppm, 15° C., four days.
The mark [3] stands for this setting: Botrytis cinerea, foliar, 96 h, heterocyclic compound alone, 0.5 ppm, 15° C., four days, read-out: preventive value (%).
Setting [4] is: Botrytis cinerea, foliar, 96 h, heterocyclic compound alone, 5.0 ppm, 15° C., four days, read-out: preventive value (%).
[5] abbreviates: Botrytis cinerea, foliar, 96 h, read-out: preventive value (%), heterocyclic compound alone, 0.5 ppm, 15° C., four days.
The mark [6] stands for this setting: Botrytis cinerea, foliar, 96 h, read-out: preventive value (%), heterocyclic compound alone, 5.0 ppm, 15° C., four days.

Each structure is given as a SMILES string. Like-named read-outs stand apart in the source and are kept apart here.

On to `CC(Oc1ccc(Cl)cc1Cl)C(=O)NC(C)(C#N)C(C)C` (centres unmarked) [fenoxanil], for which the “preventive value (%)” value is 10% under setting [1] and 15% under setting [2].

As for `C[C@@]1(c2ccc(Oc3ccccc3)cc2)OC(=O)N(Nc2ccccc2)C1=O` (racemic) [famoxadone], the pest or weed control at 0.5 ppm under setting [3] is 10%. Under setting [4], the pest or weed control at 5 ppm was 15%.

With `CSC1=N[C@@](C)(c2ccccc2)C(=O)N1Nc1ccccc1` [fenamidone], the pest or weed control at 0.5 ppm under setting [3] is 5%. Besides, the pest or weed control at 5 ppm under setting [4] was determined as 10%.

Turning to `CNC(=O)C(OC)c1ccccc1COc1cc(C)ccc1C` (racemic) [the present amide compound], under “Botrytis cinerea, foliar, 96 h, the present amide compound alone, 1.0 ppm, 15° C., four days”, the pest or weed control at 1 ppm is 46%. In addition, the pest or weed control at 2.5 ppm (Botrytis cinerea, foliar, 96 h, the present amide compound alone, 2.5 ppm, 15° C., four days) turned out to be 56%.

`CCCOc1nc2ccc(I)cc2c(=O)n1CCC` [proquinazid]: the “preventive value (%)” value under setting [1] stood at 10% and the “preventive value (%)” value under setting [2] amounted to 15%.

`Cc1cccc2sc3nncn3c12` [tricyclazole]: the pest or weed control at 0.5 ppm under setting [3] was 10%. In addition, under setting [4], the pest or weed control at 5 ppm was determined as 15%.

`CSC(=O)c1cccc2nnsc12` [acibenzolar-S-methyl]: the “preventive value (%)” value was 15% under setting [1] and 25% under setting [2].

Turning to `C/C(=N/Nc1nc(C)cc(C)n1)c1ccccc1C` [ferimzone], the pest or weed control at 0.5 ppm under setting [5] was found to be 10%. The pest or weed control at 5 ppm under setting [6] stood at 15%.

`Cc1ccc(NC(=O)c2snnc2C)cc1Cl` [tiadinil]: the pest or weed control at 0.5 ppm under setting [3] stood at 10%. Besides, the pest or weed control at 5 ppm under setting [4] is 25%.

`Fc1ccc(Oc2ccnc3cc(Cl)cc(Cl)c23)cc1` [quinoxyfen]: under setting [3], the pest or weed control at 0.5 ppm is 10%. Besides, under setting [4], the pest or weed control at 5 ppm worked out at 15%.

With `CC(C)OC(=O)C(C(=O)OC(C)C)=C1SCCS1` [isoprothiolane], the pest or weed control at 0.5 ppm under setting [5] worked out at 10%. Besides, the pest or weed control at 5 ppm under setting [6] turned out to be 15%.

For `C=CCOC1=NS(=O)(=O)c2ccccc21` [probenazole], under setting [3], the pest or weed control at 0.5 ppm is 10%. Moreover, the pest or weed control at 5 ppm under setting [4] was 25%.

`Cc1c(Br)c2ccc(F)cc2n1S(=O)(=O)c1ncn(S(=O)(=O)N(C)C)n1` [amisulbrom]: the “preventive value (%)” value came to 10% under setting [1] and 15% under setting [2].

For the compound `O=C1CCc2cccc3c2N1CC3` [pyroquilon], under setting [5], the pest or weed control at 0.5 ppm is 10%. Besides, the pest or weed control at 5 ppm under setting [6] came to 15%.

Regarding `CN1CSC(=S)N(C)C1` [dazomet], the pest or weed control at 0.5 ppm under setting [5] was 10%. The pest or weed control at 5 ppm under setting [6] turned out to be 20%.

For `Cc1c(Cl)cc(-c2ccc(=O)[nH]n2)cc1Cl` [diclomezine], the pest or weed control at 0.5 ppm under setting [3] stood at 10%. The pest or weed control at 5 ppm under setting [4] came out at 15%.
